Assay results: ChEMBL document CHEMBL1133907, “Discovery of thioazepinone ligands for Src SH2: from non-specific to specific binding” (Bioorg Med Chem Lett, 2001)

Legend:
[1] = biological target: T1, Proto-oncogene tyrosine-protein kinase Src (Homo sapiens, UniProt P12931); test: Binding affinity was determined on Src protein tyrosine kinase SH2 domain using scintillation proximity assay (SPA)
[2] = biological target: T1, Proto-oncogene tyrosine-protein kinase Src; test: Binding affinity was determined on Src protein tyrosine kinase SH2 domain using fluorescence polarization assay with 2% DMSO in buffer solution
[3] = biological target: T1, Proto-oncogene tyrosine-protein kinase Src; test: Binding affinity for Src protein tyrosine kinase SH2 domain
[4] = biological target: T1, Proto-oncogene tyrosine-protein kinase Src; test: Binding affinity for Src protein tyrosine kinase SH2 domain using fluorescence polarization assay with 20% DMSO in buffer solution

T1 sequence (P12931 2-536 limits assumed): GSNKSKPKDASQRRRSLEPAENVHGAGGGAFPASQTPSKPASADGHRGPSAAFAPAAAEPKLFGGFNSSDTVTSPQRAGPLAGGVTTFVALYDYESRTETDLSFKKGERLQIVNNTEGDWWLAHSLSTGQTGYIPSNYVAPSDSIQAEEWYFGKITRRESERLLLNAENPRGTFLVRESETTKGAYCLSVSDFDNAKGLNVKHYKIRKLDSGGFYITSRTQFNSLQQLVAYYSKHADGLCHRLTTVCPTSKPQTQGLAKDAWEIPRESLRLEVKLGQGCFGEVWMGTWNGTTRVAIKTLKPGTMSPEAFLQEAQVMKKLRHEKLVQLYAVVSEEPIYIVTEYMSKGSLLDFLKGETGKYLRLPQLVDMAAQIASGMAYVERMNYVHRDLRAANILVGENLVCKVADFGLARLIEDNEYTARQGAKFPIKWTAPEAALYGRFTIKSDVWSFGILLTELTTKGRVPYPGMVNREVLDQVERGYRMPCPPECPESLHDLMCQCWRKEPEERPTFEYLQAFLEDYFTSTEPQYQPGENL

SMILES	IC50 [2] [µM]	further results
CC(=O)N[C@@H](Cc1ccc(OP(=O)(O)O)cc1)C(=O)N[C@H]1CSCCN(Cc2ccc(-c3ccccc3)cc2)C1=O		IC50 [1]: 0.09 µM
COc1ccc(C2Sc3ccccc3N(CC(=O)NCc3cccc4ccccc34)C(=O)C2NC(=O)c2ccc3c(Cl)c(OP(=O)(O)OCc4ccccc4)ccc3c2)cc1 (stereo not drawn)	27	
COc1ccc(C2Sc3ccccc3N(CC(=O)NCc3cccc4ccccc34)C(=O)C2NC(=O)Cc2ccc(OP(=O)(O)OCc3ccccc3)cc2)cc1 (stereo not drawn)	5	
COc1ccc(C2Sc3ccccc3N(CC(=O)Nc3cccc(Oc4ccccc4)c3)C(=O)C2NC(=O)[C@H](Cc2ccc(OP(=O)(O)OCc3ccccc3)cc2)NC(=O)OC(C)(C)C)cc1 (stereo partly drawn)	14.2	
COc1ccc(C2Sc3ccccc3N(CC(=O)NCc3cccc4ccccc34)C(=O)C2NC(=O)c2ccc(OP(=O)(O)OCc3ccccc3)cc2)cc1 (stereo not drawn)	20	
CC(=O)N[C@@H](Cc1ccc(OP(=O)(O)O)cc1)C(=O)N[C@H]1CSCCN(Cc2cccc(-c3ccccc3C#N)c2)C1=O		IC50 [1]: 0.3 µM
COc1ccc(C2Sc3ccccc3N(CC(=O)NCc3cccc4ccccc34)C(=O)C2NC(=O)CCc2ccc(OP(=O)(O)OCc3ccccc3)cc2)cc1 (stereo not drawn)	339	
COc1ccc(C2Sc3ccccc3N(Cc3ccccc3)C(=O)C2NC(=O)[C@H](Cc2ccc(OP(=O)(O)OCc3ccccc3)cc2)NC(=O)OC(C)(C)C)cc1 (stereo partly drawn)	46	
COc1ccc(C2Sc3ccccc3N(CC(=O)Nc3ccccc3OC)C(=O)C2NC(=O)[C@H](Cc2ccc(OP(=O)(O)OCc3ccccc3)cc2)NC(=O)OC(C)(C)C)cc1 (stereo partly drawn)	95	
COc1ccc(C2Sc3ccccc3N(C(C(=O)Nc3cccc4ccccc34)c3ccccc3)C(=O)C2NC(=O)[C@H](Cc2ccc(OP(=O)(O)OCc3ccccc3)cc2)NC(=O)OC(C)(C)C)cc1 (stereo partly drawn)	23	
COC(=O)c1cccc(CN2CCSC[C@H](NC(=O)[C@H](Cc3ccc(OP(=O)(O)O)cc3)NC(C)=O)C2=O)c1		IC50 [1]: 0.13 µM
COc1ccc(C2Sc3ccccc3N(Cc3ccc(-c4ccccc4C(=O)OC(C)(C)C)cc3)C(=O)C2NC(=O)[C@H](Cc2ccc(OP(=O)(O)OCc3ccccc3)cc2)NC(=O)OC(C)(C)C)cc1 (stereo partly drawn)	18	
CC[C@H](C)[C@H](NC(=O)[C@H](CCC(=O)O)NC(=O)[C@H](CCC(=O)O)NC(=O)[C@@H](N)Cc1ccc(OP(=O)(O)O)cc1)C(=O)O	6.5	IC50 [3]: 0.15 µM; IC50 [4]: 5 µM
CC(=O)N[C@@H](Cc1ccc(OP(=O)(O)O)cc1)C(=O)N[C@H]1CSCCN(CC(=O)c2ccc(N(C)C)cc2)C1=O		IC50 [1]: 9.3 µM
COc1ccc(C2Sc3ccccc3N(CC(=O)Nc3ccc(Oc4ccccc4)cc3)C(=O)C2NC(=O)[C@H](Cc2ccc(OP(=O)(O)OCc3ccccc3)cc2)NC(=O)OC(C)(C)C)cc1 (stereo partly drawn)	29	
COc1ccc(C2Sc3ccccc3N(CC(=O)NCc3cccc4ccccc34)C(=O)C2NC(=O)c2ccc3cc(OP(=O)(O)OCc4ccccc4)ccc3c2)cc1 (stereo not drawn)	23	
CC(=O)N[C@@H](Cc1ccc(OP(=O)(O)O)cc1)C(=O)N[C@H]1CSCCN(Cc2ccc3c(c2Cl)OCO3)C1=O		IC50 [1]: 1.2 µM
COc1ccc(C2Sc3ccccc3N(CC(=O)NCc3cccc4ccccc34)C(=O)C2NC(=O)c2cc3cc(OP(=O)(O)OCc4ccccc4)ccc3[nH]2)cc1 (stereo not drawn)	32	
COc1ccc(C2Sc3ccccc3N(CC(=O)NCc3cccc4ccccc34)C(=O)C2NC(=O)[C@H](Cc2ccc(OP(=O)(O)OCc3ccccc3)cc2)NC(=O)OC(C)(C)C)cc1 (stereo in doubt; 3a)	128	
COc1ccc(C2Sc3ccccc3N(CC(=O)NCc3cccc4ccccc34)C(=O)C2NC(=O)[C@H](Cc2ccc(OP(=O)(O)OCc3ccccc3)cc2)NC(=O)OC(C)(C)C)cc1 (stereo in doubt; 3b)	118	
COc1ccc(C2Sc3ccccc3N(CC(=O)Nc3cccc4ccccc34)C(=O)C2NC(=O)[C@H](Cc2ccc(OP(=O)(O)OCc3ccccc3)cc2)NC(=O)OC(C)(C)C)cc1 (stereo in doubt; 3c)	189	
COc1ccc(C2Sc3ccccc3N(CC(=O)Nc3cccc4ccccc34)C(=O)C2NC(=O)[C@H](Cc2ccc(OP(=O)(O)OCc3ccccc3)cc2)NC(=O)OC(C)(C)C)cc1 (stereo in doubt; 3l)	133	
COc1ccc(C2Sc3ccccc3N(CC(=O)Nc3cccc4ccccc34)C(=O)C2NC(=O)[C@H](Cc2ccc(OP(=O)(O)OCc3ccccc3)cc2)NC(=O)OC(C)(C)C)cc1 (stereo in doubt; 3m)	26	
COc1ccc(C2Sc3ccccc3N(CC(=O)Nc3cccc4ccccc34)C(=O)C2NC(=O)[C@H](Cc2ccc(OP(=O)(O)OCc3ccccc3)cc2)NC(=O)OC(C)(C)C)cc1 (stereo in doubt; 3n)	23	

Second part, led by results:

IC50 [2] [µM]	SMILES	further results
873	COc1ccc(C2Sc3ccccc3NC(=O)C2NC(=O)[C@H](Cc2ccc(OP(=O)(O)OCc3ccccc3)cc2)NC(=O)OC(C)(C)C)cc1 (stereo partly drawn)	
0.4	CC(=O)N[C@@H](Cc1ccc(OP(=O)(O)O)cc1)C(=O)N[C@H]1CSCCN(Cc2cccc(OC(F)(F)F)c2)C1=O	
26	CC(C)(C)OC(=O)N[C@@H](Cc1ccc(OP(=O)(O)OCc2ccccc2)cc1)C(=O)NC1CSc2ccccc2N(CCCC2CCCCC2)C1=O (stereo partly drawn)	IC50 [3]: 13 µM; IC50 [4]: 87 µM
6.4	COc1ccc(C2Sc3ccccc3N(CCCC3CCCCC3)C(=O)C2NC(=O)[C@H](Cc2ccc(OP(=O)(O)OCc3ccccc3)cc2)NC(=O)OC(C)(C)C)cc1 (stereo partly drawn)	IC50 [3]: > 100 µM; IC50 [4]: 28 µM
1.6	CC(=O)N[C@@H](Cc1ccc(OP(=O)(O)O)cc1)C(=O)N[C@H]1CSCCN(Cc2cccc(C(=O)c3ccccc3)c2)C1=O	
422	CC(C)(C)OC(=O)N[C@H](Cc1ccc(OP(=O)(O)O)cc1)C(=O)NC1CSc2ccccc2N(CCCC2CCCCC2)C1=O (stereo partly drawn)	IC50 [3]: 18 µM
10	CC(C)(C)OC(=O)N[C@@H](Cc1ccc(OP(=O)(O)O)cc1)C(=O)NC1CSc2ccccc2N(CCCC2CCCCC2)C1=O (stereo partly drawn)	IC50 [3]: 1 µM; IC50 [4]: 11 µM
115	CC(C)(C)OC(=O)N[C@@H](Cc1ccc(OP(=O)(O)O)cc1)C(=O)NC1CSCCN(CCCC2CCCCC2)C1=O (stereo partly drawn)	IC50 [3]: 1.4 µM
1.6	CC(=O)N[C@@H](Cc1ccc(OP(=O)(O)O)cc1)C(=O)N[C@H]1CSCCN(Cc2cccc(C(F)(F)F)c2)C1=O	
